Test results taken from patent US20160037775A1, “ACTIVE INGREDIENT COMBINATIONS HAVING INSECTICIDAL AND ACARICIDAL PROPERTIES” (priority 2010, published 2016).
Like-named read-outs stand apart in the source and are kept apart here.

Experiments:
Assay type in all cases: in vivo
Myzus persicae = assay: whole plant or invertebrate
From the text: (§1) If the actual kill rate is greater than that calculated, the kill rate of the combination is superadditive, which means that a synergistic effect is present. In this case, the kill rate actually observed must be greater than the value calculated from the above formula for the expected kill rate (E).
(§2) • 78 parts by weight of acetone • 1.5 parts by weight of dimethylformamide Emulsifier: 0.5 part by weight of alkylaryl polyglycol ether
(§3) To produce an appropriate active ingredient formulation, 1 part by weight of active ingredient is mixed with the stated amounts of solvent and emulsifier, and the concentrate is diluted with emulsifier-containing water to the desired concentration.
After the desired time, the kill in % is determined. 100% means that all aphids have been killed; 0% means that no aphids have been killed. The kill rates determined are entered into Colby's formula.

Phaedon cochleariae = assay: whole plant or invertebrate; settings: Phaedon cochleariae, 144 h, read-out: Kill rate in % after 6 d
From the text: (§4) The expected action for a given combination of two active ingredients can be calculated according to S. R. Colby, Weeds 15 (1967), 20-22 as follows:
(§5) • X is the kill rate, expressed in % of the untreated control, in the case of use of active ingredient A in an application rate of m g/ha or in a concentration of m ppm, • Y is the kill rate, expressed in % of the untreated control, in the case of use of active ingredient B in an application rate of n g/ha or in a concentration of n ppm, and • E is the kill rate, expressed in % of the untreated control, in the case of use of active ingredients A and B in application rates of m and n g/ha or in a concentration of m and n ppm, then
as §1, §2, §3
Cabbage leaves (Brassica oleracea) are treated by spraying with the active ingredient formulation of the desired concentration and populated with larvae of the mustard beetle (Phaedon cochleariae) while the leaves are still moist.
After the desired period of time, the kill rate in % is determined. 100% means that all beetle larvae have been killed; 0% means that none of the beetle larvae have been killed. The kill rates determined are entered into Colby's formula.

Tetranychus urticae = assay: Tetranychus test (OP-resistant/spray treatment)
From the text: as §4, §5, §1, §2, §3
Discs of bean leaves (Phaseolus vulgaris) infested by all stages of the two-spotted spider mite (Tetranychus urticae) are sprayed with an active ingredient formulation of the desired concentration.
After the desired period of time, the effect in % is determined. 100% means that all of the spider mites have been killed; 0% means that none of the spider mites have been killed.

[1] = Myzus persicae, 24 h, 20 g/ha, after 1 d, read-out: Kill rate in % after 1 d
[2] = Myzus persicae, 144 h, read-out: Kill rate in % after 6 d
[3] = Myzus persicae, 24 h, read-out: Kill rate in % after 1 d
[4] = Myzus persicae, 144 h, after 6 d, read-out: Kill rate in % after 6 d
[5] = Tetranychus urticae, 48 h, 4 g/ha, after 2 d, applied individually, read-out: Kill rate in % after 2 d
[6] = Tetranychus urticae, 48 h, 20 g/ha, after 2 d, applied individually, read-out: Kill rate in % after 2 d
[7] = Myzus persicae, 24 h, after 1 d, read-out: Kill rate in % after 1 d

## CNC(=O)Oc1cc(C)c(SC)c(C)c1 [methiocarb]
Myzus persicae; [1]
  pest or weed control at 20 g/ha: 0%

## N#Cc1ccc(CC(=NNC(=O)Nc2ccc(OC(F)(F)F)cc2)c2cccc(C(F)(F)F)c2)cc1 (mixture of isomers) [metaflumizone]
Myzus persicae; 20 g/ha, after 1 d
  Kill rate in % after 1 d: 0%

## CCCSP(=O)(OCC)SCCC [ethoprophos]
Myzus persicae; [2]
  pest or weed control at 4 g/ha: 0%
Phaedon cochleariae; after 6 d
  pest or weed control at 0.8 g/ha: 0%

## COP(=O)(NC(C)=O)SC (stereo not shown) [acephate]
Myzus persicae; [3]
  pest or weed control at 100 g/ha: 0%
Phaedon cochleariae
  pest or weed control at 4 g/ha: 0%

## CC1=NNC(=O)N(/N=C/c2cccnc2)C1 [pymetrozine]
Myzus persicae; Myzus persicae, 24 h, 100 g/ha, after 1 d, read-out: Kill rate in % after 1 d
  pest or weed control at 100 g/ha: 0%

## O=C(NC(=O)c1ccccc1Cl)Nc1ccc(OC(F)(F)F)cc1 [triflumuron]
Myzus persicae; Myzus persicae, 144 h, 4 g/ha, after 6 d, read-out: Kill rate in % after 6 d
  pest or weed control at 4 g/ha: 0%
Myzus persicae; Myzus persicae, 144 h, 20 g/ha, after 6 d, read-out: Kill rate in % after 6 d
  pest or weed control at 20 g/ha: 0%
Phaedon cochleariae; 4 g/ha, after 6 d
  pest or weed control at 4 g/ha: 0%

## CCOCn1c(-c2ccc(Cl)cc2)c(C#N)c(Br)c1C(F)(F)F [chlorfenapyr]
Myzus persicae; [4]
  pest or weed control at 0.16 g/ha: 0%
  pest or weed control at 0.8 g/ha: 0%
Tetranychus urticae; [5]
  pest or weed control at 4 g/ha: 10%

## O=C1C=C(N(Cc2ccc(Cl)nc2)CC(F)F)CO1 [4-{[(6-chloropyrid-3-yl)methyl](2,2-difluoroethyl)amino}furan-2(5H)-one]
Myzus persicae; [1]
  pest or weed control at 20 g/ha: 0%
Tetranychus urticae; [6]
  pest or weed control at 20 g/ha: 0%

## Cc1c(COC(=O)[C@@H]2[C@H](/C=C(\Cl)C(F)(F)F)C2(C)C)cccc1-c1ccccc1 (racemic) [bifenthrin]
Myzus persicae; [7]
  pest or weed control at 0.8 g/ha: 80%
Tetranychus urticae; Tetranychus urticae, 48 h, 0.16 g/ha, after 2 d, applied individually, read-out: Kill rate in % after 2 d
  pest or weed control at 0.16 g/ha: 0%

## Cc1c(F)c(F)c(COC(=O)[C@@H]2[C@H](/C=C(\Cl)C(F)(F)F)C2(C)C)c(F)c1F (racemic) [tefluthrin]
Tetranychus urticae; Tetranychus urticae, 144 h, 20 g/ha, after 6 d, applied individually, read-out: Kill rate in % after 6 d
  pest or weed control at 20 g/ha: 0%

## N#CCNC(=O)c1cnccc1C(F)(F)F [flonicamid]
Myzus persicae; 20 g/ha, after 1 d
  Kill rate in % after 1 d: 0%

## CC(C)N1C(=O)N(c2ccccc2)CS/C1=N\C(C)(C)C [buprofezin]
Myzus persicae; Myzus persicae, 24 h, 500 g/ha, after 1 d, read-out: Kill rate in % after 1 d
  pest or weed control at 500 g/ha: 0%

## Cc1cc(C(F)(C(F)(F)F)C(F)(F)F)ccc1NC(=O)c1cccc(I)c1C(=O)NC(C)(C)CS(C)(=O)=O [flubendiamide]
Tetranychus urticae; [6]
  pest or weed control at 20 g/ha: 0%
Phaedon cochleariae; after 6 d
  pest or weed control at 0.8 g/ha: 0%

## O=[N+]([O-])NC1=NCCN1Cc1ccc(Cl)nc1 [imidacloprid]
Myzus persicae; [7]
  pest or weed control at 0.8 g/ha: 0%

## CCOC(=O)OC1=C(c2cc(C)ccc2C)C(=O)N[C@]12CC[C@@H](OC)CC2 [spirotetramat]
Tetranychus urticae; [5]
  pest or weed control at 4 g/ha: 0%

## CN/C(=N\[N+](=O)[O-])NCc1cnc(Cl)s1 [clothianidin]
Myzus persicae; [1]
  pest or weed control at 20 g/ha: 70%
Myzus persicae; [4]
  pest or weed control at 0.16 g/ha: 0%

## Cc1cc(C)c(C2=C(OC(=O)CC(C)(C)C)C3(CCCC3)OC2=O)c(C)c1 [spiromesifen]
Myzus persicae; 4 g/ha, after 1 d
  Kill rate in % after 1 d: 0%
Tetranychus urticae; 4 g/ha, after 6 d, applied individually
  Kill rate in % after 6 d: 70%
Tetranychus urticae; 20 g/ha, after 6 d, applied individually
  Kill rate in % after 6 d: 80%

## CNC(=O)Oc1cccc2c1OC(C)(C)C2 [carbofuran]
Myzus persicae; [1]
  pest or weed control at 20 g/ha: 70%

## Fc1cncc(-c2ncc(-c3cccc(-c4ncccn4)n3)s2)c1 [2-{6-[2-(5-fluoropyridin-3-yl)-1,3-thiazol-5-yl]pyridin-2-yl}pyrimidine]
Myzus persicae; [4]
  pest or weed control at 0.8 g/ha: 70%
Phaedon cochleariae; 0.16 g/ha, after 6 d
  pest or weed control at 0.16 g/ha: 0%

## CC(C)c1cc(Oc2ccccc2)cc(C(C)C)c1NC(=S)NC(C)(C)C [diafenthiuron]
Myzus persicae; [3]
  pest or weed control at 100 g/ha: 0%
Myzus persicae; [2]
  pest or weed control at 20 g/ha: 70%
Tetranychus urticae; Tetranychus urticae, 48 h, read-out: Kill rate in % after 2 d
  pest or weed control at 100 g/ha: 0%
Tetranychus urticae; Tetranychus urticae, 144 h, read-out: Kill rate in % after 6 d
  pest or weed control at 20 g/ha: 10%

## CC1(C)[C@H](C=C(Cl)Cl)[C@H]1C(=O)OCc1c(F)c(F)cc(F)c1F [transfluthrin]
Myzus persicae; [1]
  pest or weed control at 20 g/ha: 70%
